Our source for the TGI and GI50 values is PubChem BioAssay (NCI).

Where “and” joins values, the source holds several entries; their conditions need not be identical. Identical values can stand only once.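 All cell lines were grown in 96-well plates and treated with compound for 48 hours. GI50 = concentration required for 50% inhibition of growth. TGI denotes the concentration required for complete inhibition of growth.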

Some test systems named below: 786-0 renal; CAKI-1 renal; HCT-116 colon; HOP-62 NSCLC; MDA-MB-231 breast; MOLT-4 leukemia; NCI-H522 lung; OVCAR-4 ovarian; RXF 393 renal; SK-MEL-28 melanoma.
Holding throughout (experiment): DTP human tumour cell line panel, 48 h

As a reminder, the TGI is the concentration giving total growth inhibition. The low end stands for greater sensitivity of the cells, the high end for lower sensitivity of the cells. As for `COC(=O)C(=O)C(C(=O)C(N)=O)c1nc2ccc(C(=O)c3ccccc3)cc2[nH]c1=O` (stereo not drawn), the TGI in the assay with 786-0 renal, in the assay on CAKI-1 renal, in the assay with HCT-116 colon, with HOP-62 NSCLC, in the assay with MDA-MB-231 breast and in the assay on MOLT-4 leukemia was over 100 µM each time. The TGI in the assay with NCI-H522 lung, in the assay with OVCAR-4 ovarian, in the assay on RXF 393 renal and with SK-MEL-28 melanoma was over 100 µM throughout.

On to `Nc1cc2[nH]cnc2c(=O)[nH]1`, for which the TGI in the assay on 786-0 renal is over 300 µM; in the assay with CAKI-1 renal, 135 µM; in the assay on HCT-116 colon, over 300 µM; with HOP-62 NSCLC, over 191 µM; with MDA-MB-231 breast, over 300 µM; with MOLT-4 leukemia it was over 300 µM. Further, the TGI is over 215 µM in the assay on NCI-H522 lung, over 300 µM with OVCAR-4 ovarian, over 300 µM with RXF 393 renal and over 300 µM with SK-MEL-28 melanoma.

For the compound `COc1cc2c3c(c1OC)C1(C=CC(=O)C=C1)CC3NCC2` (stereo not drawn), the TGI in the assay on 786-0 renal, in the assay with CAKI-1 renal, in the assay with HCT-116 colon, with HOP-62 NSCLC, with MDA-MB-231 breast and in the assay with MOLT-4 leukemia was over 100 µM throughout. The TGI in the assay on NCI-H522 lung, in the assay on OVCAR-4 ovarian, in the assay with RXF 393 renal and with SK-MEL-28 melanoma was over 100 µM throughout.

For orientation: GI50 means the concentration giving 50% growth inhibition. Consider `Oc1c(CN2CCCC2)cc(CSCc2ccccc2)c2cccnc12`, for which the GI50 in the assay on 786-0 renal was 728 nM; in the assay on CAKI-1 renal it was 77.4 nM; with HCT-116 colon, 694 nM; with HOP-62 NSCLC, 513 nM; in the assay on MDA-MB-231 breast, 987 nM; with MOLT-4 leukemia, 671 nM. Moreover, the GI50 in the assay with NCI-H522 lung is 1140 nM; in the assay with OVCAR-4 ovarian, 456 nM; in the assay with RXF 393 renal, 772 nM; with SK-MEL-28 melanoma it was 1850 nM. Also, the TGI came to 6.09 µM in the assay with 786-0 renal; 1.47 µM with CAKI-1 renal; 10.1 µM in the assay with HCT-116 colon; 7.78 µM in the assay with HOP-62 NSCLC; 12.2 µM with MDA-MB-231 breast; 2.74 µM with MOLT-4 leukemia. In addition, the TGI was determined as 3.77 µM in the assay with NCI-H522 lung, 2.47 µM with OVCAR-4 ovarian, 3.74 µM with RXF 393 renal and 13.6 µM with SK-MEL-28 melanoma.

For `CCC[CH2][Sn]1([CH2]CCC)[O]C(=O)c2ccc(N)cc2[O]1`, the GI50 was 410 nM in the assay on 786-0 renal; 119 nM in the assay on CAKI-1 renal; 965 nM with HCT-116 colon; 1350 nM in the assay with HOP-62 NSCLC; 185 nM in the assay on MDA-MB-231 breast; 254 nM in the assay with MOLT-4 leukemia. The GI50 is 48 nM in the assay on NCI-H522 lung, 1290 nM in the assay with OVCAR-4 ovarian, 112 nM in the assay on RXF 393 renal and 397 nM in the assay with SK-MEL-28 melanoma. The TGI with 786-0 renal came to 1.61 µM; in the assay on CAKI-1 renal, 1.27 µM; in the assay with HCT-116 colon, 2.19 µM; in the assay on HOP-62 NSCLC it was 2.82 µM; in the assay on MDA-MB-231 breast it was 1.42 µM; with MOLT-4 leukemia it was 2.43 µM. The TGI was found to be 0.179 µM with NCI-H522 lung, 2.59 µM in the assay on OVCAR-4 ovarian, 0.427 µM with RXF 393 renal and 1.48 µM with SK-MEL-28 melanoma.

As to `CC[C@]1(O)C[C@@H]2CN(CCc3c([nH]c4ccccc34)[C@@](C(=O)OC)(c3cc4c(cc3OC)N(C)[C@H]3[C@@](O)(C(N)=O)[C@H](O)[C@]5(CC)[C@@H]6C[C@@H]6CN6CC[C@]43[C@@H]65)C2)C1`, the GI50 in the assay on 786-0 renal was 24.7 nM; with CAKI-1 renal, 1120 nM; in the assay on HCT-116 colon it was under 3.33 nM; with HOP-62 NSCLC, 6.94 nM; in the assay on MDA-MB-231 breast, 5.48 nM; in the assay with MOLT-4 leukemia, under 3.33 nM. The GI50 was under 3.33 nM in the assay on NCI-H522 lung, 93.1 nM in the assay on OVCAR-4 ovarian, 15.3 nM in the assay on RXF 393 renal and 6470 nM in the assay with SK-MEL-28 melanoma. For the same compound, the TGI in the assay with 786-0 renal is over 19.3 µM; with CAKI-1 renal, over 33.3 µM; in the assay with HOP-62 NSCLC, over 33.3 µM; with MDA-MB-231 breast, over 16.2 µM; with MOLT-4 leukemia, over 33.3 µM; with NCI-H522 lung, under 0.00333 µM. For the same compound, the concentration for total growth inhibition (TGI) in the assay with OVCAR-4 ovarian, in the assay on RXF 393 renal and in the assay on SK-MEL-28 melanoma was over 33.3 µM each time.

As to `Cc1cnc(Nc2ccc(OCCN3CCCC3)cc2)nc1Nc1cccc(S(=O)(=O)NC(C)(C)C)c1`, the GI50 with 786-0 renal was 197 nM and 1010 nM; in the assay with CAKI-1 renal, 1110 nM; in the assay on HCT-116 colon it was 345 nM; in the assay on HOP-62 NSCLC it was 305 nM and 848 nM; in the assay on MDA-MB-231 breast, 214 nM and 1330 nM; with MOLT-4 leukemia, 180 nM and 1140 nM. In addition, the GI50 is 53 nM and 371 nM in the assay with NCI-H522 lung; 671 nM and 967 nM in the assay with OVCAR-4 ovarian; 95.5 nM and 518 nM in the assay with RXF 393 renal; 3270 nM and > 7800 nM with SK-MEL-28 melanoma. The TGI in the assay on 786-0 renal is 3.95 µM and 2.86 µM; in the assay with HCT-116 colon, 4.94 µM and > 6.43 µM; in the assay with HOP-62 NSCLC, 9.5 µM and > 8.68 µM; with MDA-MB-231 breast, 11.7 µM and > 10 µM; with MOLT-4 leukemia, 12.5 µM and > 10 µM; in the assay on NCI-H522 lung it was 1.35 µM and 3.15 µM. The TGI in the assay with OVCAR-4 ovarian was 21.3 µM and > 10 µM; with RXF 393 renal, 0.385 µM and 1.78 µM; in the assay on SK-MEL-28 melanoma it was 17.5 µM and > 10 µM.

Turning to `CC(C)(C)n1cc(-c2ccnc(NCCCNS(=O)(=O)c3ccc(Br)cc3)c2)c(-c2cccc(O)c2)n1`, the GI50 in the assay on 786-0 renal was 1660 nM; with CAKI-1 renal it was 2160 nM; in the assay with HCT-116 colon, 1310 nM; in the assay on HOP-62 NSCLC, 2050 nM; in the assay with MDA-MB-231 breast, 1740 nM; with MOLT-4 leukemia it was 2300 nM. Further, the GI50 in the assay on NCI-H522 lung was 2130 nM; in the assay with OVCAR-4 ovarian it was 1910 nM; in the assay on RXF 393 renal, 1460 nM; in the assay on SK-MEL-28 melanoma, 1790 nM. The TGI in the assay on 786-0 renal is 3.16 µM; in the assay on CAKI-1 renal, 5.06 µM; with HCT-116 colon, 2.6 µM; with HOP-62 NSCLC, 4.2 µM; in the assay with MDA-MB-231 breast it was 3.39 µM; in the assay with MOLT-4 leukemia it was 6.74 µM. In addition, the TGI in the assay with NCI-H522 lung stood at 4.55 µM; in the assay with OVCAR-4 ovarian, 3.91 µM; in the assay with RXF 393 renal it was 2.87 µM; with SK-MEL-28 melanoma it was 3.36 µM.

With `COC(=O)[C@]1(C)CCC[C@@]2(C)[C@@H]3C[C@@H]4[C@H]5C[C@@]3(CC[C@@H]21)C[C@@]45C`, the TGI turned out to be 29.6 µM with 786-0 renal; 30 µM with CAKI-1 renal; 45.2 µM with HCT-116 colon; 32.2 µM in the assay with HOP-62 NSCLC; 29.9 µM in the assay with MDA-MB-231 breast; 33.8 µM in the assay on MOLT-4 leukemia. In addition, the TGI turned out to be 32.9 µM with NCI-H522 lung, 26.7 µM in the assay with OVCAR-4 ovarian, 38.2 µM with RXF 393 renal and 47.1 µM in the assay on SK-MEL-28 melanoma.
